How the values were obtained:
Rat [1] = assay: concentration in plasma after dosing; details: 2 min; dosed: 2-Methyltetrahydrofuran; 40 mg/kg; iv; Female; Harlan Sprague Dawley
Rat [2] = assay: concentration in brain after dosing; details: 0.75 h; dosed: 2-Methyltetrahydrofuran; 40 mg/kg; iv; Male; Harlan Sprague Dawley
Rat [3] = assay: concentration in liver after dosing; details: 1 h; dosed: Fluorotelomer alcohol 8+2; 80 mg/kg; oral; Female; Harlan Sprague Dawley
Rat [4] = assay: concentration in plasma after dosing; details: dosed: 678-39-7, 12 mg/kg, iv, Male, F344
Rat [5] = assay: concentration in plasma after dosing; details: dosed: 678-39-7, 40 mg/kg, iv, Male, F344
Rat [6] = assay: concentration in plasma after dosing; details: 1 h; dosed: Perfluorohexanoic Acid; 40 mg/kg; iv; Male; F344
Rat [7] = assay: concentration in liver after dosing; details: 3 h; dosed: Perfluorohexanoic Acid; 80 mg/kg; oral; Female; Harlan Sprague Dawley
Rat [8] = assay: concentration in plasma after dosing; details: 0.5 h; dosed: Gemfibrozil; 50 mg/kg; oral; Male; Sprague-Dawley
Rat [9] = assay: concentration in plasma after dosing; details: 10 min; dosed: Gemfibrozil; 4.29 mg/kg; oral; Male; Sprague-Dawley

CC1CCCO1 (stereo unspecified) [2-Methyltetrahydrofuran]
concentration in plasma (Rat [1]): 52500 ng/mL
concentration in brain (Rat [2]): 11300 ng/mL

O=C(O)CCC(F)(F)C(F)(F)C(F)(F)C(F)(F)C(F)(F)C(F)(F)C(F)(F)F [Fluorotelomer acid 7+3]
concentration in liver (Rat [3]): 1340 ng/g
concentration in plasma (Rat [4]; 0.75 h): 334 ng/mL
concentration in plasma (Rat [4]; 12 h): 90 ng/mL
concentration in plasma (Rat [5]; 0.25 h): 115 ng/mL
concentration in plasma (Rat [5]; 6 h): 2200 ng/mL

O=C(O)C(F)(F)C(F)(F)C(F)(F)C(F)(F)C(F)(F)F [Perfluorohexanoic Acid]
concentration in plasma (Rat [6]): 20100 ng/mL
concentration in liver (Rat [7]): 8200 ng/g

Cc1ccc(C)c(OCCCC(C)(C)C(=O)O)c1 [Gemfibrozil]
concentration in plasma (Rat [8]): 4640 ng/mL
concentration in plasma (Rat [9]): 657 ng/mL
